Where two headings read alike, the source gives them in different places.

Our source for the IC50 values is US8664257B2, “Oxygen-substituted 3-heteroaroylamino-propionic acid derivatives and their use as pharmaceuticals” (Sanofi, priority 2010, dated 2014).

This assay addresses T1, Recombinant human cathepsin A (Homo sapiens, UniProt P10619).
T1 construct: Recombinant human cathepsin A (residues 29-480, with a C-terminal 10-His tag); 10-His (C); purchased R&D Systems 1049-SE
T1 sequence (P10619 29-312 limits assumed): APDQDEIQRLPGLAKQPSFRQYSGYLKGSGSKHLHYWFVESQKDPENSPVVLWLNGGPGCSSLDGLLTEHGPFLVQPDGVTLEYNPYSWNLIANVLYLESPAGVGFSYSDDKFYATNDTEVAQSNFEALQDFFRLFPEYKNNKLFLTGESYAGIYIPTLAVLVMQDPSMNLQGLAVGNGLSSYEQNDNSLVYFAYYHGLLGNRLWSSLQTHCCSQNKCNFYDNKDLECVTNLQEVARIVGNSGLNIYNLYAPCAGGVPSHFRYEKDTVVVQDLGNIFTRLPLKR
T1 sequence (P10619 327-480 limits assumed): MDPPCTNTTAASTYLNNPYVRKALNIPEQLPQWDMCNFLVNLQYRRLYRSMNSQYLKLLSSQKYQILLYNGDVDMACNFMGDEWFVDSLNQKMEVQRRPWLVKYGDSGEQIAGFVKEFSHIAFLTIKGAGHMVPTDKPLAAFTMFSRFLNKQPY
As to the kind of experiment: Cathepsin A inhibitory activity. In kind it is biochemical. The essentials:
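Human cathepsin A (res. 29-480, C-His10) pre-activated with cathepsin L (MES pH 6.0, DTT, 15 min, 37 °C; quenched with 10 μM E-64). Enzyme (833 ng/ml) preincubated 15 min RT with compound in MES pH 5.5/DTT, then 2 μM Bodipy FL-bradykinin for 15 min RT. Capillary electrophoresis product/substrate peak areas; IC50 from % inhibition.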

[1] abbreviates: read-out: Activity (2): Cathepsin A inhibitory activity (IC50 class).
Setting [2] is: recombinant human cathepsin A 833 ng/ml, Bodipy FL-labeled bradykinin 2 μM, pH 5.5, read-out: CATH-A IC50.

In the case of `COc1ccc(C(CC(=O)O)NC(=O)c2cc(O)n(-c3ccccc3)n2)c(C(F)(F)F)c1` (stereo not drawn) [Example 546, 3-[(5-Hydroxy-1-phenyl-1H-pyrazole-3-carbonyl)-amino]-3-(4-methoxy-2-trifluoromethyl-phenyl)-propionic acid], the IC50 by setting is: under setting [1], 0.1 to 1 µM; under setting [2], 0.533 µM.
Regarding `COc1ccc(F)c(C(CC(=O)O)NC(=O)c2cc(O)n(-c3ccccc3)n2)c1` (stereo not drawn) [Example 547, 3-(2-Fluoro-5-methoxy-phenyl)-3-[(5-hydroxy-1-phenyl-1H-pyrazole-3-carbonyl)-amino]-propionic acid], the concentration for half-maximal inhibition (IC50) is 1 to 30 µM under setting [1] and 1.39 µM under setting [2].
The matching figures for `COc1ccc(C(F)(F)F)cc1C(CC(=O)O)NC(=O)c1cc(O)n(-c2ccccc2)n1` (stereo not drawn) [Example 548, 3-[(5-Hydroxy-1-phenyl-1H-pyrazole-3-carbonyl)-amino]-3-(2-methoxy-5-trifluoromethyl-phenyl)-propionic acid]: 1 to 30 µM and 7.76 µM.
For `COc1ccc(-c2ccccc2)cc1C(CC(=O)O)NC(=O)c1cc(O)n(-c2ccccc2)n1` (stereo not drawn) [Example 549, 3-[(5-Hydroxy-1-phenyl-1H-pyrazole-3-carbonyl)-amino]-3-(4-methoxy-biphenyl-3-yl)-propionic acid] the same measures were 1 to 30 µM and 13.8 µM.
Consider `O=C(O)CC(NC(=O)c1cc(O)n(-c2ccccc2F)n1)c1ccc(-n2cncn2)cc1` (stereo not drawn) [Example 550, 3-{[1-(2-Fluoro-phenyl)-5-hydroxy-1H-pyrazole-3-carbonyl]-amino}-3-(4-[1,2,4]triazol-1-yl-phenyl)-propionic acid], for which the IC50 runs as follows: under setting [1], 0.1 to 1 µM; under setting [2], 0.635 µM.
On to `COc1cc(-c2ccccc2)ccc1C(CC(=O)O)NC(=O)c1cc(O)n(-c2ccccc2F)n1` (stereo not drawn) [Example 551, 3-{[1-(2-Fluoro-phenyl)-5-hydroxy-1H-pyrazole-3-carbonyl]-amino}-3-(3-methoxy-biphenyl-4-yl)-propionic acid], for which the IC50 reads like this: under setting [1], 0.1 to 1 µM; under setting [2], 0.352 µM.
For `COc1ccc(C(CC(=O)O)NC(=O)c2cc(O)n(-c3ccccc3F)n2)c(C(F)(F)F)c1` (stereo not drawn) [Example 552, 3-{[1-(2-Fluoro-phenyl)-5-hydroxy-1H-pyrazole-3-carbonyl]-amino}-3-(4-methoxy-2-trifluoromethyl-phenyl)-propionic acid] the same measures were 0.1 to 1 µM and 0.323 µM.
As for `COc1ccc(F)c(C(CC(=O)O)NC(=O)c2cc(O)n(-c3ccccc3F)n2)c1` (stereo not drawn) [Example 553, 3-(2-Fluoro-5-methoxy-phenyl)-3-{[1-(2-fluoro-phenyl)-5-hydroxy-1H-pyrazole-3-carbonyl]-amino}-propionic acid], the 50% inhibitory concentration (IC50) is 0.1 to 1 µM under setting [1] and 0.732 µM under setting [2].
Consider `COc1ccc(C(F)(F)F)cc1C(CC(=O)O)NC(=O)c1cc(O)n(-c2ccccc2F)n1` (stereo not drawn) [Example 554, 3-{[1-(2-Fluoro-phenyl)-5-hydroxy-1H-pyrazole-3-carbonyl]-amino}-3-(2-methoxy-5-trifluoromethyl-phenyl)-propionic acid], for which the IC50 is 1 to 30 µM under setting [1] and 1.84 µM under setting [2].
Consider `Cc1ccc(C(CC(=O)O)NC(=O)c2cc(O)n(-c3ccccc3F)n2)c(F)c1` (stereo not drawn) [Example 555, 3-(2-Fluoro-4-methyl-phenyl)-3-{[1-(2-fluoro-phenyl)-5-hydroxy-1H-pyrazole-3-carbonyl]-amino}-propionic acid], for which the IC50 is, setting by setting: under setting [1], 0.1 to 1 µM; under setting [2], 0.239 µM.
For `COc1ccc(-c2ccccc2)cc1C(CC(=O)O)NC(=O)c1cc(O)n(-c2ccccc2F)n1` (stereo not drawn) [Example 556, 3-{[1-(2-Fluoro-phenyl)-5-hydroxy-1H-pyrazole-3-carbonyl]-amino}-3-(4-methoxy-biphenyl-3-yl)-propionic acid] the same measures were 1 to 30 µM and 8.65 µM.
For `O=C(O)CC(NC(=O)c1cc(O)n(-c2ccccc2Cl)n1)c1ccc(-n2cncn2)cc1` (stereo not drawn) [Example 557, 3-{[1-(2-Chloro-phenyl)-5-hydroxy-1H-pyrazole-3-carbonyl]-amino}-3-(4-[1,2,4]triazol-1-yl-phenyl)-propionic acid] the same measures were 0.1 to 1 µM and 0.839 µM.
As for `COc1cc(-c2ccccc2)ccc1C(CC(=O)O)NC(=O)c1cc(O)n(-c2ccccc2Cl)n1` (stereo not drawn) [Example 558, 3-{[1-(2-Chloro-phenyl)-5-hydroxy-1H-pyrazole-3-carbonyl]-amino}-3-(3-methoxy-biphenyl-4-yl)-propionic acid], the IC50 under setting [1] was in the range of 0.1 to 1 µM and the IC50 under setting [2] amounted to 0.699 µM.
The matching figures for `COc1ccc(F)c(C(CC(=O)O)NC(=O)c2cc(O)n(-c3ccccc3Cl)n2)c1` (stereo not drawn) [Example 559, 3-{[1-(2-Chloro-phenyl)-5-hydroxy-1H-pyrazole-3-carbonyl]-amino}-3-(2-fluoro-5-methoxy-phenyl)-propionic acid]: 0.1 to 1 µM and 0.731 µM.
The matching figures for `COc1ccc(C(F)(F)F)cc1C(CC(=O)O)NC(=O)c1cc(O)n(-c2ccccc2Cl)n1` (stereo not drawn) [Example 560, 3-{[1-(2-Chloro-phenyl)-5-hydroxy-1H-pyrazole-3-carbonyl]-amino}-3-(2-methoxy-5-trifluoromethyl-phenyl)-propionic acid]: 1 to 30 µM and 7.62 µM.
As for `Cc1ccc(C(CC(=O)O)NC(=O)c2cc(O)n(-c3ccccc3Cl)n2)c(F)c1` (stereo not drawn) [Example 561, 3-{[1-(2-Chloro-phenyl)-5-hydroxy-1H-pyrazole-3-carbonyl]-amino}-3-(2-fluoro-4-methyl-phenyl)-propionic acid], the IC50 was 0.1 to 1 µM under setting [1] and 0.266 µM under setting [2].
The matching figures for `COc1ccc(-c2ccccc2)cc1C(CC(=O)O)NC(=O)c1cc(O)n(-c2ccccc2Cl)n1` (stereo not drawn) [Example 562, 3-{[1-(2-Chloro-phenyl)-5-hydroxy-1H-pyrazole-3-carbonyl]-amino}-3-(4-methoxy-biphenyl-3-yl)-propionic acid]: 1 to 30 µM and 4.49 µM.
The matching figures for `O=C(O)CC(NC(=O)c1cc(O)n(-c2ccccc2)n1)c1ccc(-n2cncn2)cc1` (stereo not drawn) [Example 563, 3-[(5-Hydroxy-1-phenyl-1H-pyrazole-3-carbonyl)-amino]-3-(4-[1,2,4]triazol-1-yl-phenyl)-propionic acid]: 1 to 30 µM and 1.74 µM.
For `Cc1ccc(C(CC(=O)O)NC(=O)c2cc(O)n(-c3ccccc3)n2)c(F)c1` (stereo not drawn) [Example 564, 3-(2-Fluoro-4-methyl-phenyl)-3-[(5-hydroxy-1-phenyl-1H-pyrazole-3-carbonyl)-amino]-propionic acid] the same measures were 0.1 to 1 µM and 0.459 µM.
In the case of `O=C(O)CC(NC(=O)c1cc(O)n(-c2ccccc2)n1)c1ccc(N2CCCC2)cc1` (stereo not drawn) [Example 565, 3-[(5-Hydroxy-1-phenyl-1H-pyrazole-3-carbonyl)-amino]-3-(4-pyrrolidin-1-yl-phenyl)-propionic acid], the IC50 is 1 to 30 µM under setting [1] and 5.02 µM under setting [2].
For `O=C(O)CC(NC(=O)c1cc(O)n(-c2ccccc2F)n1)c1ccc(N2CCCC2)cc1` (stereo not drawn) [Example 566, 3-{[1-(2-Fluoro-phenyl)-5-hydroxy-1H-pyrazole-3-carbonyl]-amino}-3-(4-pyrrolidin-1-yl-phenyl)-propionic acid], the IC50 is 1 to 30 µM under setting [1] and 2.99 µM under setting [2].
The matching figures for `COc1ccc(C(CC(=O)O)NC(=O)c2cc(O)n(-c3ccccc3Cl)n2)c(C(F)(F)F)c1` (stereo not drawn) [Example 567, 3-{[1-(2-Chloro-phenyl)-5-hydroxy-1H-pyrazole-3-carbonyl]-amino}-3-(4-methoxy-2-trifluoromethyl-phenyl)-propionic acid]: 1 to 30 µM and 1.06 µM.
For `O=C(O)CC(NC(=O)c1cc(O)n(-c2ccccc2Cl)n1)c1ccc(N2CCCC2)cc1` (stereo not drawn) [Example 568, 3-{[1-(2-Chloro-phenyl)-5-hydroxy-1H-pyrazole-3-carbonyl]-amino}-3-(4-pyrrolidin-1-yl-phenyl)-propionic acid] the same measures were 1 to 30 µM and 2.35 µM.
As to `O=C(O)CC(NC(=O)c1cc(O)n(-c2ccccc2C(F)(F)F)n1)c1ccc(-c2ccc(F)cc2)cc1` (stereo not drawn) [Example 569], the IC50 under setting [1] fell in the range of 0.1 to 1 µM.
For the compound `Cc1ccccc1[C@H](CC(=O)O)NC(=O)c1cc(O)n(C2CCCC2)n1` [Example 572], the 50% inhibitory concentration (IC50) under setting [1] fell in the range of 0.1 to 1 µM.
The same measure, in the same setting: in the case of `Cc1ccccc1[C@H](CC(=O)O)NC(=O)c1cc(O)n(C2CCCCC2)n1` [Example 573] it was under 0.1 µM.
Still for that read-out and setting: in the case of `O=C(O)CC(NC(=O)c1cc(O)n(C2CCCC2)n1)c1ccc(-c2ccc(F)cc2)cc1` (stereo not drawn) [Example 574] it was 1 to 30 µM; in that of `O=C(O)CC(NC(=O)c1cc(O)n(C2CCCCC2)n1)c1ccc(-c2ccc(F)cc2)cc1` (stereo not drawn) [Example 575], 1 to 30 µM; in that of `O=C(O)CC(NC(=O)c1cc(O)n(-c2ccccc2F)n1)c1ccc(-c2ccc(C(F)(F)F)cc2)cc1` (stereo not drawn) [Example 576], 0.1 to 1 µM.
On to `O=C(O)CC(NC(=O)c1cc(O)n(-c2ccccc2)n1)c1ccc(-n2cccn2)cc1` (stereo not drawn) [Example 578], for which the IC50 under setting [1] fell in the range of 1 to 30 µM.
The same measure, in the same setting: next, `O=C(O)CC(NC(=O)c1cc(O)n(-c2ccccc2)n1)c1ccc(-c2ccc(C(F)(F)F)cc2)cc1` (stereo not drawn) [Example 579]: 1 to 30 µM.
